pEC50: −log10 of the molar value. “Also recorded” adds a separate entry of the source.
Tests used:
SH-SY5Y cells [1] = assay: H2O2-EC50 of hydralazine and its analogs (protection from H2O2 stress); type: cell-based; details: Homo sapiens
Experimental: To generate intracellular aldehydes, the inventors treated human neuroblastoma cell line (SH-SY5Y) with 100 μM hydrogen peroxide (H2O2) for 24 h. Carbonyl groups were quantified using 2,4-DNPH (dinitrophenylhydrazine) assay.
Cell Viability and Cytotoxicity Assay. Cell growth was analyzed using the MTT cell viability assay. Briefly, at the end of incubation/treatment, MTT reagent was diluted in culture medium and aliquoted into each well. After incubation for 2 hours, the medium was aspirated and DMSO was aliquoted into each well to disrupt the cells and dissolve the intracellular MTT dyes. Absorbance was read at 570 nm wavelength in a 96-well plate reader. Cell toxicity was detected using a LDH cell toxicity assay kit (Promega, Fitchburg Wis.). This is a coupled enzymatic assay that detects a visible color signal initially described by Nachlas et. al. The reagent contained excess concentrations of lactate and NAD+as substrates to drive the LDH reaction and produce NADH. In the presence of diaphorase, NADH drives the enzyme-catalyzed conversion of iodonitro-tetrazolium violet to a red formazan product. Briefly, DMEM medium was withdrawn from each well of the plate after treatment and briefly centrifuged to get rid of floating cells or cell debris. Then, the medium supernatant was mixed with equal volume of substrate/enzyme mixture included in the kit (lactate, NAD+, diaphorase and iodonitro-tetrazolium violet), followed by incubation at room temperature for 15 minutes before the addition of acetic acid to cease the reaction. The absorbance was read at 490 nm in a 96-well plate reader. […] Cell viability assay was performed using CellTiter-Glo assay.

C. elegans = assay: Rotenone stress test in worms; type: in vivo; details: in vivo
From the text: The inventors again used rotenone to elicit PD-like changes.
Rotenone stress test. […] After 3 days young adult worms were transferred to fresh NGM plates either preloaded with rotenone alone or rotenone plus any of the abovementioned compounds. Every worm was subjected to prodding test with a worm pick every day. A worm was scored as dead when not responding to three repeated proddings. Survival curve was plotted using Prism 7.

Nrf2 = details: SH-SY5Y, 5 μM sulforaphane
Experimental: The inventors quantified Nrf2 protein in treated cells as a first step towards validating the prediction of the Nrf2 pathway.
Nrf2 phosphorylation on serine 40 is a regulatory modification required for Nrf2 translocation to nucleus and downstream protein activation.
Western Blot Analysis. Protein expression was determined by Western blot analysis. Equal amount of protein from each sample was run in Tris-glycine SDS PAGE gel, followed by transferring to PVDF membrane. After blocking the membrane with 5% milk for 1 hour at room temperature, the membrane was incubated further for 2 hours with antibodies specific for target proteins: Nrf2, pNrf2(S40) from Novus (Littleton, Colo.); Keap1, HO-1, NQO1, GCLc, GCLm and lamin B1 from Cell Signaling (Danvers, Mass.); GAPDH from Santa Cruz (Dallas, Tex.); β-Actin from Thermo Fisher (Waltham, Mass.). The membrane was subsequently incubated with species-specific HRP-conjugated secondary antibody followed by incubation with chemiluminescence substrate and imaging. The band intensity of each of the target proteins was quantified using ImageQuant software (GE Healthcare, Sweden). Western blot analysis on worm lystaes was done similarly. […] Equal amounts of protein were run on the gel and SKN-1 protein level was detected using anti-GFP antibody.
Cell Fractionation. Nuclear and cytoplasmic fractions were separated using the protocol and NE-PER Nuclear and Cytoplasmic Extraction Reagents provided by […]. Briefly, the cells were harvested and washed with ice-cold PBS buffer. The cells were resuspended in ice-cold CER-I buffer and incubated on ice for 10 minutes, followed by addition of CER-II buffer and incubation for one more minute on ice. The lysate was centrifuged at 16,000 g for 5 minutes. The supernatant was the cytoplasmic fraction. The pellet obtained was lysed in ice-cold NER buffer to obtain nuclear protein fractions.

SH-SY5Y cells [2] = assay: Mitochondrial membrane potential (TMRE); type: cell-based, human; details: hydralazine 0, 10, 20 μM; isoniazid 20 μM
Experimental: Cells were stained by TMRE to tag active mitochondria. Florescence signal was quantified by Flow Jo software. […] ATP levels were measured by bioluminescent detection of luciferase activity. All data are presented normalized to cell number.
The mitochondrial membrane potential was measured as an indicator of cellular energetics and ATP content.

| SMILES | pEC50 (SH-SY5Y cells [1]) | other results |
| --- | --- | --- |
| NNc1nnc(O)c2ccccc12 [4-Hydrazinylphthalazin-1-ol, 4-Hydrazinylphthalazin-1-ol] | ≤ 5.00 | – |
| Oc1nnc(Cl)c2ccccc12 [4-Chlorophthalazin-1-ol] | ≤ 4.70 | – |
| [Cl-].[Na+] [NaCl] | – | protection against rotenone-induced death (C. elegans): No protection; also recorded: did not protect worms |
| O=c1[nH]ncc2ccccc12 [Phthalazin-1(2H)-one] | ≤ 4.30 | – |
| NNc1nnc(Cl)c2ccccc12 [1-Chloro-4-hydrazinyl-phthalazine, 1-Chloro-4-hydrazinylphthalazine] | ≤ 4.70 | – |
| C[S+]([O-])CCCCN=C=S (centres unmarked) [sulforaphane] | – | phosphorylation and nuclear localization of Nrf2 (positive control) (Nrf2): caused similar changes |

Continued, in another order:

| pEC50 (SH-SY5Y cells [1]) | SMILES | other results |
| --- | --- | --- |
| ≤ 4.30 | Cc1nc2c3ccccc3c(NN)nn2n1 [6-Hydrazinyl-2-methyl-[1,2,4]triazolo[5,1-a]phthalazine] | – |
| 5.36 | C#CCOc1nnc(NN)c2ccccc12 [1-Hydrazinyl-4-(prop-2-yn-1-yloxy)phthalazine] | – |
| ≤ 4.30 | CN(C)Nc1nncc2ccccc12 | – |
| ≤ 4.30 | NNC(=O)c1ccncc1 [Isonicotinohydrazide] | mitochondrial membrane potential / mitochondrial function (TMRE) (SH-SY5Y cells [2]): did not have a positive effects on mitochondrial function |

Source: patent publication US20190298717A1 (BOARD OF REGENTS, THE UNIVERSITY OF TEXAS SYSTEM, priority 2016, published 2019)
